The text below walks through data of PubChem BioAssay AID1259407 (Chemical Carcinogenesis Research Information System (CCRIS), 2018).

This series relates to CCRIS mutagenicity, Ames/micronucleus/aberration tests. As to the kind of experiment: CCRIS mutagenicity studies.
The mark [1] stands for this setting: Test System: AMES SALMONELLA TYPHIMURIUM, Strain/Indicator: TA98, Metabolic Activation: NONE, Method: STANDARD PLATE.
Setting [2] is: Test System: AMES SALMONELLA TYPHIMURIUM, Strain/Indicator: TA98, Metabolic Activation: RAT, LIVER, S-9, AROCLOR 1254, Method: STANDARD PLATE.
[3] abbreviates: Test System: AMES SALMONELLA TYPHIMURIUM, Strain/Indicator: TA100, Metabolic Activation: NONE, Method: STANDARD PLATE.
[4] abbreviates: Test System: AMES SALMONELLA TYPHIMURIUM, Strain/Indicator: TA100, Metabolic Activation: RAT, LIVER, S-9, AROCLOR 1254, Method: STANDARD PLATE.
Setting [5] is: Test System: AMES SALMONELLA TYPHIMURIUM, Strain/Indicator: TA1535, Metabolic Activation: NONE, Method: STANDARD PLATE.
The mark [6] stands for this setting: Test System: AMES SALMONELLA TYPHIMURIUM, Strain/Indicator: TA1535, Metabolic Activation: RAT, LIVER, S-9, AROCLOR 1254, Method: STANDARD PLATE.
[7] abbreviates: Test System: AMES SALMONELLA TYPHIMURIUM, Strain/Indicator: TA1537, Metabolic Activation: NONE, Method: STANDARD PLATE.
The mark [8] stands for this setting: Test System: AMES SALMONELLA TYPHIMURIUM, Strain/Indicator: TA1537, Metabolic Activation: RAT, LIVER, S-9, AROCLOR 1254, Method: STANDARD PLATE.
[9] abbreviates: Test System: AMES SALMONELLA TYPHIMURIUM, Strain/Indicator: TA100, Metabolic Activation: NONE, Method: PREINCUBATION
Setting [10] is: Test System: AMES SALMONELLA TYPHIMURIUM, Strain/Indicator: TA98, Metabolic Activation: NONE, Method: PREINCUBATION

Activity calls are given as the source filed them. How the calls were made is not given here.

Consider `CC(=O)OCC1=CO[C@@H](OC(=O)CC(C)C)[C@H]2C1=C[C@H](OC(=O)CC(C)C)[C@]21CO1`, for which the mutagenic call is “inactive; negative” under setting [1]; “inactive; negative” under setting [2]; “inactive; negative” under setting [3]; “active; positive” under setting [4]; “inactive; negative” under setting [5]; “inactive; negative” under setting [6]. The mutagenic call was “inactive; negative” under setting [7]; “inactive; negative” under setting [8]; “inactive; negative” (Test System: E. COLI, Strain/Indicator: WP2, Metabolic Activation: NONE, Method: STANDARD PLATE); “inactive; negative” (Test System: E. COLI, Strain/Indicator: WP2, Metabolic Activation: RAT, LIVER, S-9, AROCLOR 1254, Method: STANDARD PLATE); “active; positive” (Test System: E. COLI, Strain/Indicator: WP2 UVRA, Metabolic Activation: NONE, Method: STANDARD PLATE); “inactive; negative” (Test System: E. COLI, Strain/Indicator: WP2 UVRA, Metabolic Activation: RAT, LIVER, S-9, AROCLOR 1254, Method: STANDARD PLATE).

Consider `COc1cc2c(c3oc(=O)c4c(c13)CCOC4=O)[C@@H]1C=CO[C@@H]1O2`, for which the mutagenic call was “active; positive” (Test System: AMES SALMONELLA TYPHIMURIUM, Strain/Indicator: TA98, Metabolic Activation: RAT, LIVER, MICROSOMES, PHENOBARBITAL, Method: STANDARD PLATE); “active; positive” (Test System: AMES SALMONELLA TYPHIMURIUM, Strain/Indicator: TA98, Metabolic Activation: RAT, LIVER, S-9, PHENOBARBITAL, Method: STANDARD PLATE); “active; positive” under setting [9]; “active; positive” (Test System: AMES SALMONELLA TYPHIMURIUM, Strain/Indicator: TA100, Metabolic Activation: RAT, LIVER, MICROSOMES, PHENOBARBITAL, Method: STANDARD PLATE); “active; positive” (Test System: AMES SALMONELLA TYPHIMURIUM, Strain/Indicator: TA100, Metabolic Activation: RAT, LIVER, S-9, PHENOBARBITAL, Method: PREINCUBATION); “active; positive” (Test System: UDS HUMAN FIBROBLASTS, Strain/Indicator: THY INCORP (NON-S-PHASE), Metabolic Activation: MOUSE, LIVER, S-9, Method: AUTORADIOGRAPHY). Besides, for the setting “Test System: UDS RODENT HEPATOCYTES, Strain/Indicator: THY INCORP (NON-S-PHASE), Method: AUTORADIOGRAPHY”, the mutagenic call was “active; positive”.

Consider `CN(CO)N=O`, for which the mutagenic call (Test System: CHINESE HAMSTER V-79, Strain/Indicator: V-79/OUABAIN, Metabolic Activation: NONE) was “active; positive”.

With `O=C(O)C(Cl)=C(C(Cl)Cl)C(Cl)Cl`, the mutagenic call was “active; positive” under setting [10]; “active; positive” under setting [9]; “active; positive” under setting [3]; “active; positive” (Test System: AMES SALMONELLA TYPHIMURIUM, Strain/Indicator: TA104, Metabolic Activation: NONE, Method: PREINCUBATION).

As to `CN1CCN(c2ccc3nc(-c4ccc5nc(-c6ccc(O)cc6)[nH]c5c4)[nH]c3c2)CC1`, the mutagenic call runs as follows: under setting [1], “inactive; negative”; under setting [3], “inactive; negative”; (Test System: AMES SALMONELLA TYPHIMURIUM, Strain/Indicator: TA102, Metabolic Activation: NONE, Method: STANDARD PLATE) “inactive; negative”.

With `c1cc2ccc3cc4c(c5ccc(c1)c2c35)[C@H]1O[C@H]1CC4`, the mutagenic call (Test System: CHINESE HAMSTER V-79, Strain/Indicator: V-79/8-AZAGUANINE, Metabolic Activation: NONE, Method: STANDARD PLATE) was “active; positive”.

Regarding `Nc1cccc(-c2ccccc2)c1`, the mutagenic call runs as follows: under setting [10], “inactive; negative”; (Test System: AMES SALMONELLA TYPHIMURIUM, Strain/Indicator: TA98, Metabolic Activation: RAT LIVER S-9, AROCLOR 1254, Method: PREINCUBATION) “inactive; negative”; (Test System: AMES SALMONELLA TYPHIMURIUM, Strain/Indicator: TA98, Metabolic Activation: RAT, LIVER, S-9, AROCLOR 1254 (4%), Method: STANDARD PLATE) “active; positive”; under setting [2], “inactive; negative”; under setting [9], “inactive; negative”; (Test System: AMES SALMONELLA TYPHIMURIUM, Strain/Indicator: TA100, Metabolic Activation: RAT LIVER S-9, AROCLOR 1254, Method: PREINCUBATION) “inactive; negative”. Moreover, the mutagenic call under setting [4] was “inactive; negative”.

On to `CC1(C)C2CCC3(CO3)C1C2` (stereo unspecified), for which the mutagenic call runs as follows: under setting [3], “inactive; negative”; under setting [5], “inactive; negative”.

As for `CN(CCO)C(=O)Nc1ccc(Cl)c(Cl)c1`, the mutagenic call is “inactive; negative” under setting [1]; “inactive; negative” under setting [2]; “inactive; negative” under setting [3]; “inactive; negative” under setting [4]; “inactive; negative” under setting [5]; “inactive; negative” under setting [6]. In addition, the mutagenic call runs as follows: under setting [7], “inactive; negative”; under setting [8], “inactive; negative”; (Test System: AMES SALMONELLA TYPHIMURIUM, Strain/Indicator: TA1538, Metabolic Activation: NONE, Method: STANDARD PLATE) “inactive; negative”; (Test System: AMES SALMONELLA TYPHIMURIUM, Strain/Indicator: TA1538, Metabolic Activation: RAT, LIVER, S-9, AROCLOR 1254, Method: STANDARD PLATE) “inactive; negative”.

Turning to `CCCCCC=O`, the mutagenic call was “active; positive” (Test System: CHINESE HAMSTER V-79, Strain/Indicator: V-79/6-THIOGUANINE (HGPRT), Metabolic Activation: NONE, Method: REPLATING); “active; positive” (Test System: CHINESE HAMSTER V-79, Strain/Indicator: V-79/OUABAIN (NA/K), Metabolic Activation: NONE, Method: REPLATING); “inactive; negative” (Test System: UDS HUMAN HEPATOCYTES, Strain/Indicator: THY INCORP, Metabolic Activation: NONE, Method: AUTORADIOGRAPHY); “active; positive” (Test System: UDS RAT HEPATOCYTES, Strain/Indicator: THY INCORP, Metabolic Activation: NONE, Method: AUTORADIOGRAPHY).

Take `Nc1c(O)cccc1C(=O)O`: the mutagenic call under setting [9] is “inactive; negative”.

On to `C[C@H](CC1=C(C=O)CO[C@@H]1O)C1=CCC(C)(C)C1`, for which the mutagenic call is “inactive; negative” under setting [1]; “inactive; negative” under setting [3]; “inactive; negative” (Test System: AMES SALMONELLA TYPHIMURIUM, Strain/Indicator: TA2637, Metabolic Activation: NONE, Method: STANDARD PLATE).

In the case of `O=CC(=C(Cl)Cl)C(Cl)Cl`, the mutagenic call under setting [3] was “active; positive”.
